Test results from paper PMC9448382, “Fluorosulfate-containing pyrazole heterocycles as selective BuChE inhibitors: structure-activity relationship and biological evaluation for the treatment of Alzheimer’s disease” (Journal of Enzyme Inhibition and Medicinal Chemistry, 2022).
Entries after “also recorded” stand apart in the source; their conditions may differ.

Assays:
[1] = target: T1, BuChE from horse serum (Equus caballus, UniProt P81908); assay: biochemical; type: biochemical
T1 construct: BuChE from horse serum (C4290-1KU; Sigma); purchased Sigma C4290-1KU; host or cells: horse serum
T1 sequence (P81908 whole entry): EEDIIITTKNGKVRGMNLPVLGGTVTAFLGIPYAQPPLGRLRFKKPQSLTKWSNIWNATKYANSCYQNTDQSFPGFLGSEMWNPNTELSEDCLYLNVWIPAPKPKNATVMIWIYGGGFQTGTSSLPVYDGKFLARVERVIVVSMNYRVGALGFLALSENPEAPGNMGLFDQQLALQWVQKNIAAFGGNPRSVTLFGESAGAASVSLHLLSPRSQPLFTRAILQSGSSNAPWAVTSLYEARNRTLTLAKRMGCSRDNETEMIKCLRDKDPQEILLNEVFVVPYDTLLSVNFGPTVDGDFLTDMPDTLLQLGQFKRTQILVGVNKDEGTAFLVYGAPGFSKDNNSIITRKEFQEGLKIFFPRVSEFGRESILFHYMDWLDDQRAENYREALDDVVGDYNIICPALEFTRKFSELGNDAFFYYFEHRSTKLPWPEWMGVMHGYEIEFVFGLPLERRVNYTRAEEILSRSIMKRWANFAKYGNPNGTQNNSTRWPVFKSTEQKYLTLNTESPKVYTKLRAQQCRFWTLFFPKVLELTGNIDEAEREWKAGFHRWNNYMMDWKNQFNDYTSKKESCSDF
Experimental: According to Ellman's method, assays were carried out on AChE from electric eel (C3389-500UN; Sigma) and BuChE from horse serum (C4290-1KU; Sigma). On a final volume of 500 μL, the experiment was carried out in 48-well plates. EeAChE or eqBuChE, 0.036 U/mL, and 0.1 M pH 8 phosphate buffer were added to each well. At 37 °C, they were pre-incubated for 20 min at various chemical concentrations. […] Along with the enzymatic breakdown of ACh or BuCh, the DTNB creates the yellow anion 5-thio-2-nitrobenzoic acid. In a Biotek Synergy HTX Multi-Mode reader, changes in absorbance were detected at 410 nm. Inhibition curves were used to calculate the IC50 values (log inhibitor concentration vs percent of inhibition). The same conditions were used in a control experiment without the inhibitor, and the blank comprised buffer, DMSO, DTNB, and substrate.
The IC50 values were calculated by SPSS 17.0.

[2] = in vitro
Text: Based on prior work[40]^,[41], a parallel artificial membrane permeation assay (PAMPA) for the blood-brain barrier (BBB) was used to determine the ability of the test chemical to penetrate into the brain. Six commercial medicines were purchased from Aladdin Reagents to validate the methodology. Energy Chemical provided the DMSO and dodecane. Avanti Polar Lipids provided the porcine brain lipid (PBL). Millipore provided the donor 96-well filter microplate with a PVDF membrane (pore size […]) and the acceptor indented 96-well microplate. Corning Inc. provided the 96-well UV plate (COSTAR). DMSO was used to dissolve commercial medications and test compounds at a concentration of 20 mg/mL. They were then diluted 200 times in a solution of PBS (pH 7.4 ± 0.1)/EtOH (70/30, v/v) to achieve a final concentration of 100 µg/mL. The donor microplate's fifilter membrane was coated with 4 µL of PBL in dodecane (20 mg/mL). The donor wells were then filled with 200 µL of diluted chemical solution and 300 µL of PBS/EtOH (70/30, v/v). To make the membrane contact with buffer solution, the donor fifilter plate was carefully positioned on top of the acceptor plate to form a “sandwich” assembly. At 25 °C, the sandwich was left undisturbed. The donor plate was carefully removed after 18 h of incubation, and the concentrations of test chemicals in the donor and acceptor wells were quantified using a UV plate spectroscopic reader (PerkinElmer VICTOR Nivo, Finland). Each sample was analysed at three wavelengths, in at least three independent experiments, in four wells.
Pe, permeability, refers to the ability of compounds to permeate the membranes through passive diffusion in the blood-brain barrier penetration assays.

[3] = test system: Aβ1–42; assay: Brain Aβ1–42 total amount by mouse ELISA kit; type: in vivo; conditions: mice, Aβ1–42 icv model, K3 10 mg/kg po, donepezil 15 mg/kg po
Experimental: In the Aβ1–42 oligomeric damage experiment, all mice were sacrificed after the behavioural research was completed, and the brains were collected to assess the total content of Aβ1–42 using a mouse ELISA kit. Each brain tissue sample was thoroughly homogenised in a grinder with 10 times PBS (pH = 7.4 ± 0.1) before being centrifuged for 5 min at 5000×g. The supernatant was separated for use. The detection technique followed the directions exactly, and the standard curve was created. Brain tissue Aβ1–42 content was calculated according to the linear regression equation. All values were expressed as mean ± SEM using GraphPadPrism8.0 software.

[4] = target: T2, hBuChE from human serum (Homo sapiens, UniProt P06276); assay: hBuChE inhibition assay; type: biochemical; conditions: mean ± SEM
T2 construct: purchased Sigma B4186; host or cells: human serum (per result head)
T2 sequence (P06276 29-602): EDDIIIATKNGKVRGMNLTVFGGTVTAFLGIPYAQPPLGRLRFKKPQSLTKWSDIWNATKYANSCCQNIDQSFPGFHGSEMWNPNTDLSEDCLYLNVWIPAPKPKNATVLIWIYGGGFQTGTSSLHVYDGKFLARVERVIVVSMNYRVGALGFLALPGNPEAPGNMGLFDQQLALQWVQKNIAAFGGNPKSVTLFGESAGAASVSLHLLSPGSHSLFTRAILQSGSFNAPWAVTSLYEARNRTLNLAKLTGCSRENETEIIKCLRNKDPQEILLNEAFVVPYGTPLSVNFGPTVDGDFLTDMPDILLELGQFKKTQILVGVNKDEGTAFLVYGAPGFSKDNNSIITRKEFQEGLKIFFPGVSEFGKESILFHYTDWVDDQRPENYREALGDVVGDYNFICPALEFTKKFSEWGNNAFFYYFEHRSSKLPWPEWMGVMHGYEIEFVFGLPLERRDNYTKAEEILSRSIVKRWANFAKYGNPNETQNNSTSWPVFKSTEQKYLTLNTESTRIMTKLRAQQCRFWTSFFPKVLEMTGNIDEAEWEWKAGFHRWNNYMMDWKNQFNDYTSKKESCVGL
Experimental: With 0.1 M pH 8 PBS, a DTNB solution (5 μM) was produced. Dissolve the test compound in DMSO to prepare a concentration of 2 × 10^−1 M stock solution. The solution was diluted in ethanol to five concentrations of 200, 100, 10, 1 and 0.1 μM, respectively. Measurement was carried out with 96-well plates, add 40 μL buffer, 10 μL test compound at a series of concentrations, and 10 μL AChE/BuChE in sequence. The mixture was then incubated at 37 °C for 10 min. Then add 20 μL DTNB, incubation at 37 °C for 10 min. […] For the blank value, 10 μL of ethanol was used instead of the inhibitor solution. The percentage of enzyme activity and the logarithm of compound concentration were used to express the inhibitory activity of compounds. IC50 was calculated by SPSS17.0.

[5] = test system: PC12 cells; assay: Neuroprotection assay against H2O2-induced PC12 cell injury; type: cell-based; conditions: Rattus norvegicus
Experimental: PC12 cells were distributed at a density of 1 × 10^4 cells per well into 96-well microtiter plates. At time zero, cells were treated with a range of compounds K3 concentrations (1‒25 µM) and kept for 3 h after being incubated overnight. The media were then changed with new media containing the medication as well as a cytotoxic stimulus in the form of 100 µM H2O2, which was left for another 24 h. The MTT assay was used to determine cell viability after 24 h. In the cells, 20 µL of 0.5 mg/mL MTT reagent was applied and incubated for 4 h. The cell culture was removed after 4 h, and 150 µL DMSO was added to dissolve the formazan. The optical density was measured at 492 nm (OD492) on the Biotek Synergy HTX Multi-Mode reader. Results were adjusted considering OD measured in the blank.

[6] = test system: ICR mice; assay: In vivo acute toxicity evaluation
Text: A total of 20 mice weighing 20‒25 g (F: M = 1: 1) were randomly allocated into two groups: control (n = 10) and experimental (n = 10). […] For two weeks, the mice's behaviour, appearance, and body weight changes were examined and documented. GraphPadPrism8.0 software was used to compare and summarise the body weights of the mice in the control and experimental groups.

[7] = target: T3, eqBuChE (Equus caballus, UniProt P81908); assay: Kinetic study of eqBuChE inhibition; type: biochemical, horse
T3 construct: BuChE from horse serum (C4290-1KU; Sigma); purchased Sigma C4290-1KU; host or cells: horse serum
T3 sequence (P81908 whole entry): as the sequence (P81908 whole entry) above
Experimental: The same test settings were used for kinetic studies, with six concentrations of substrate (0.1‒1 mM) and four concentrations of inhibitor (0‒1.6 µM). The effect of different doses of compound K3 on BuChE catalytic activity at 37 °C was also investigated. The final concentration of enzyme was changed (0‒0.18 U/mL) under the same test conditions as indicated in the assay methodology. For the assessment of reversible and irreversible inhibitor binding at enzyme, different concentrations of compound K3 (0, 0.4, 0.8, and 1.6 µM) were utilised.

[8] = ICR mice, intragastric, 1.0 g/kg, 14 days

O=S(=O)(F)Oc1cc(-c2ccccc2)nn1-c1ccc(Cl)cc1 [Compound K3]
IC50 [1]: 790 ± 320 nM
Papp ([2]; PAMPA, pH 7.4): 7.2 ×10⁻⁶ cm/s
Pe Exp. value ([2]; PAMPA-BBB, 18 h, 25 °C, three independent experiments): above 4 ×10^-6cm/s
decrease of Aβ1–42 peptides in brain [3]: 17.6%
IC50 [4]: 6590 ± 3540 nM
viability at 5 µM ([5]; PC-12, 100 µM H2O2, compound 5 µM): 55.9%
viability at 25 µM ([5]; PC-12, 100 µM H2O2, compound 25 µM): 69.3%
differences in body weight changes vs vehicle group [6, 8]: not significant
tolerability in single-dose acute toxicity assay [6, 8]: well tolerated
tolerated dose ([6]; mice, in vivo safety experiments): 1000 mg/kg
reversibility of BuChE inhibition ([7]; K3 0, 0.4, 0.8, 1.6 μM, enzyme 0‒0.18 U/mL): reversible
type of BuChE inhibition ([7]; Lineweaver-Burk plots): mixed and non-competitive; also recorded: mixed, and non-competitive
Ki ([7]; Lineweaver-Burk secondary plots, read-out: dissociation constant Ki): 770 nM
